The target in this assay is T1, Syk (Homo sapiens, UniProt P43405).
T1 construct: purchased BPS Bioscience, CA, USA
Kind of assay: Syk enzyme assay (SYK flash plate assay / Caliper mobility shift). It is filed as biochemical. As for the experimental part:
The kinase assay is performed either as 384-well Flashplate assay (for e.g. Topcount measurement) or as 384-well Image-Flashplate assay (for LEADseeker measurement).
2.5 nM SYK, 400 nM Biotin-Aha-Aha-KEDPDYEWPSAKK
and 10 μM ATP (spiked with 0.3 μCi 33P-ATP/well) are incubated in a total volume of 50 μl (60 mM Hepes, 10 mM MgCl2, 1.2 mM Dithiothreitol, 0.02% Brij35, 0.1% BSA, pH 7.5) with or without test compound for 1 hours at 30° C. The reaction is stopped with 25 μl 200 mM EDTA. After 30 Min at 30° C. the liquid is removed and each well washed thrice with 100 μl 0.9% sodium chloride solution. Non-specific reaction is determined in presence of 0.1 μM Staurosporine. Radioactivity is measured with Topcount (when using Flashplates) or with LEADseeker (when using Image-Flashplates) respectively. Results (e.g. IC50-values) are calculated with program tools provided by the IT-department (e.g. Symyx Assay Explorer, Genedata Screener). Enzymatic Assays Using the Caliper LifeSciences Technology
The assays described here are performed on the Caliper Life Sciences LC3000 system This technology provides data on enzyme activity via measurement of the relative amounts of phosphorylated or unphosphorylated fluorescently labelled substrate peptide at the end of an enzymatic reaction. These different states of peptide are resolved by applying a potential difference across the sample. The presence of the charged phosphate group on the product (as opposed to the substrate) causes a different peptide mobility between the two peptides. This is visualized by excitation of the fluorescent label on the substrate and product peptides and represented as peaks within the analysis software.
In order to measure inhibitor activity of kinase inhibitors on this technology, a TTP Mosquito liquid handling instrument is used to place 0.25 ul of the appropriate concentration of inhibitor in 100% DMSO (for a dose response curve calculation) into each well of a 384-well plate. To this reaction components are added to a final volume of 25 ul. The table below indicates the sequences and concentrations for the assays described in this report. Standard components are 1 mM DTT (Sigma, D0632), 1 mM MgCl2 (Sigma, M1028), 100 mM HEPES pH 7.5 (Calbiochem, 391338), 0.015% Brij-35 (Sigma, B4184).
The reaction is incubated for 90 min at 25 C, and then stopped by the addition of 70 ul of Stop buffer (100 mM HEPES pH 7.5, 0.015% Brij-35, 10 mM EDTA (Sigma, E7889)).
The plate is read on a Caliper LC 3000 in an Off-Chip mobility shift assay format, on a 12-sipper chip. Unphosphorylated substrate and phosphorylated product peptide resolve as separate peaks allowing direct measurement of percentage of conversion of substrate to product. The percent conversion can be plotted against concentration of inhibitor to produce a sigmoidal dose response curve, from which an IC50 can be calculated using GeneData Condoseo or a similar product.

What is called IC50 is the concentration that inhibits the measured activity by half. As for `COc1cc(-c2cc3nccc(-c4ccc(CNC(C)=O)cc4)c3o2)cc(OC)c1OC` [Compound A54, N-{4-[2-(3,4,5-Trimethoxy-phenyl)-furo[3,2-b]pyridin-7-yl]-benzyl}-acetamide], the 50% inhibitory concentration (IC50) lay in the range of 0.3 to 3 µM. In the case of `Fc1cc(F)cc(-c2cc3nccc(-c4cc(F)cc(F)c4)c3o2)c1` [Compound B1, 2,7-Bis-(3,5-difluoro-phenyl)-furo[3,2-b]pyridine] it was 3 to 50 µM; in that of `Fc1ccc(-c2cc3nccc(-c4ccc(F)cc4)c3o2)cc1` [Compound B6, 2,7-Bis-(4-fluoro-phenyl)-furo[3,2-b]pyridine], 3 to 50 µM; in that of `COc1cc(-c2cc3nccc(NCc4cccnc4N(C)S(C)(=O)=O)c3o2)cc(OC)c1OC` [Compound B7, N-Methyl-N-(3-{[2-(3,4,5-trimethoxy-phenyl)-furo[3,2-b]pyridin-7-ylamino]-methyl}-pyridin-2-yl)-methanesulfonamide], 3 to 50 µM. In the case of `COc1cc(-c2cc3nccc(NCc4cccc(S(C)(=O)=O)c4)c3o2)cc(OC)c1OC` [Compound B9] it was 3 to 50 µM; in that of `O=C(Nc1ccc(Oc2ccnc3cc(-c4ccccc4)oc23)cc1)c1cccn(-c2ccc(F)cc2)c1=O` [Compound B13, 1-(4-Fluoro-phenyl)-2-oxo-1,2-dihydro-pyridine-3-carboxylic acid [4-(2-phenyl-furo[3,2-b]pyridin-7-yloxy)-phenyl]-amide], 0.3 to 3 µM; in that of `CCOc1ccn(-c2ccc(F)cc2)c(=O)c1C(=O)Nc1ccc(Oc2ccnc3cc(-c4ccccc4)oc23)cc1` [Compound B14, 4-Ethoxy-1-(4-fluoro-phenyl)-2-oxo-1,2-dihydro-pyridine-3-carboxylic acid [4-(2-phenyl-furo[3,2-b]pyridin-7-yloxy)-phenyl]-amide], 0.3 to 3 µM. Take `CN(c1ncccc1CNc1ccnc2cc(-c3ccccc3)oc12)S(C)(=O)=O` [Compound B20, N-Methyl-N-{3-[(2-phenyl-furo[3,2-b]pyridin-7-ylamino)-methyl]-pyridin-2-yl}-methanesulfonamide]: the IC50 was in the range of 3 to 50 µM. Next, `COc1cc(-c2cc3nccc(Nc4ccc5c(n4)NC(=O)C(C)(C)O5)c3o2)cc(OC)c1OC` [Compound B29, 2,2-Dimethyl-6-[2-(3,4,5-trimethoxy-phenyl)-furo[3,2-b]pyridin-7-ylamino]-4H-pyrido[3,2-b][1,4]oxazin-3-one]: 0.3 to 3 µM; `COc1c(C)cc(-c2cc3nccc(-c4cc(C)c(OC)c(C)c4)c3o2)cc1C` [Compound B32, 2,7-Bis-(4-methoxy-3,5-dimethyl-phenyl)-furo[3,2-b]pyridine]: 3 to 50 µM.

As for `Cc1cccc(-c2cc3nccc(-c4cccc(C)c4)c3o2)c1` [Compound B34, 2,7-Di-m-tolyl-furo[3,2-b]pyridine], the IC50 lay within 3 to 50 µM. Next, `COc1ccc(-c2cc3nccc(-c4ccc(OC)cc4)c3o2)cc1` [Compound B35, 2,7-Bis-(4-methoxy-phenyl)-furo[3,2-b]pyridine]: 3 to 50 µM. In the case of `c1cc(-c2ccc3c(c2)OCCO3)c2oc(-c3ccc4c(c3)OCCO4)cc2n1` [Compound B37, 2,7-Bis-(2,3-dihydro-benzo[1,4]dioxin-6-yl)-furo[3,2-b]pyridine] it was 3 to 50 µM; in that of `COc1ccc(-c2cc3nccc(-c4ccc(OC)c(OC)c4)c3o2)cc1OC` [Compound B39, 2,7-Bis-(3,4-dimethoxy-phenyl)-furo[3,2-b]pyridine], 0.3 to 3 µM. For `COc1cccc(-c2cc3nccc(-c4cccc(OC)c4OC)c3o2)c1OC` [Compound B42, 2,7-Bis-(2,3-dimethoxy-phenyl)-furo[3,2-b]pyridine], the IC50 was 3 to 50 µM. Next, `CC(C)(C#N)c1ccc(-c2cc3nccc(-c4ccc(C(C)(C)C#N)cc4)c3o2)cc1` [Compound B55, 2-(4-{2-[4-(Cyano-dimethyl-methyl)-phenyl]-furo[3,2-b]pyridin-7-yl}-phenyl)-2-methyl-propionitrile]: 0.3 to 3 µM; `C=C(C)c1ccc(-c2cc3nccc(Nc4ccc5[nH]ccc5c4C)c3o2)cc1` [Compound B62, [2-(4-Isopropenyl-phenyl)-furo[3,2-b]pyridin-7-yl]-(4-methyl-1H-indol-5-yl)-amine]: 3 to 50 µM; `COc1cc(-c2cc3nccc(-c4cc(C)c(OC)c(C)c4)c3o2)cc(OC)c1OC` [Compound B73, 7-(4-Methoxy-3,5-dimethylphenyl)-2-(3,4,5-trimethoxyphenyl)furo[3,2-b]pyridine]: 0.3 to 3 µM. Next, `COc1cc(-c2cc3nccc(-c4ccc(C(=O)NC5CCCC5)cc4)c3o2)cc(OC)c1OC` [Compound B75, N-Cyclopentyl-4-(2-(3,4,5-trimethoxyphenyl)furo[3,2-b]pyridin-7-yl)benzamide]: 3 to 50 µM; `Oc1cccc(-c2cc3nccc(-c4ccccc4)c3o2)c1` [Compound C1]: 0.3 to 3 µM; `COc1cc(-c2cc3nccc(-c4cccc(C(=O)NCCO)c4)c3o2)cc(OC)c1OC` [Compound C5]: below 0.3 µM.

Regarding `CC(C)Cn1cc(-c2cc3nccc(-c4cnn(C)c4)c3o2)cn1` [Compound C6], the half-maximal inhibitory concentration (IC50) lay in the range of 0.3 to 3 µM. Next, `COc1cc(-c2cc3nccc(-c4cccc(C(=O)NCC5CCCN5C(=O)OC(C)(C)C)c4)c3o2)cc(OC)c1OC` (stereo not drawn) [Compound C7]: 0.3 to 3 µM.

As to `CNC(=O)COc1cccc(-c2ccnc3cc(-c4cc(OC)c(OC)c(OC)c4)oc23)c1` [Compound C8], the IC50 was below 0.3 µM. Next, `Cc1cc(-c2cc3nccc(-c4cnn(C)c4)c3o2)cc(C(C)(C)C)c1` [Compound C9]: 0.3 to 3 µM. For the compound `COc1cc(-c2cc3nccc(-c4cccc(C(=O)NCc5cc[nH]n5)c4)c3o2)cc(OC)c1OC` [Compound C10], the 50% inhibitory concentration (IC50) was below 0.3 µM. Next, `COc1cc(-c2cc3nccc(-c4cccnc4)c3o2)cc(OC)c1OC` [Compound C13]: below 0.3 µM; `COc1cc(-c2cc3nccc(-c4ccccc4C(C)C)c3o2)cc(OC)c1OC` [Compound C14]: 0.3 to 3 µM; `COc1cccc(-c2cc3nccc(-c4ccccc4)c3o2)c1` [Compound C15]: 0.3 to 3 µM. Next, `COc1cc(-c2cc3nccc(-c4cnn(C)c4)c3o2)ccn1` [Compound C16]: 0.3 to 3 µM.

In the case of `Cn1cc(-c2ccnc3cc(-c4cccc(OCc5ccccc5)c4)oc23)cn1` [Compound C20], the IC50 lay within 3 to 50 µM.

Regarding `Cc1noc(C)c1-c1cc2nccc(-c3cnn(C)c3)c2o1` [Compound C22], the IC50 lay in the range of 0.3 to 3 µM.

With `COc1cc(-c2cc3nccc(-c4cnc(F)cc4C)c3o2)cc(OC)c1OC` [Compound C23], the half-maximal inhibitory concentration (IC50) was below 0.3 µM. As to `c1ccc(-c2ccnc3cc(-c4ccc(N5CCOCC5)nc4)oc23)cc1` [Compound C25], the half-inhibitory concentration (IC50) lay in the range of 0.3 to 3 µM. In the case of `COc1cc(-c2cc3nccc(-c4ccc(OC5CCOCC5)nc4)c3o2)cc(OC)c1OC` [Compound C28] it was 0.3 to 3 µM. As to `Cn1cc(-c2ccnc3cc(-c4ccc(OC(F)(F)F)cc4)oc23)cn1` [Compound C32], the IC50 lay in the range of 0.3 to 3 µM.

`Cn1cc(-c2ccnc3cc(-c4ccc(OCCN5CCCCC5)cc4)oc23)cn1` [Compound C36]: the half-maximal inhibitory concentration (IC50) is 0.3 to 3 µM. In the case of `Cn1cc(-c2ccnc3cc(-c4ccc(OCC(O)CN5CCCCC5)cc4)oc23)cn1` (stereo not drawn) [Compound C38], the IC50 lay within 0.3 to 3 µM. Next, `c1cncc(-c2ccnc3cc(-c4ccc(N5CCOCC5)nc4)oc23)c1` [Compound C39]: 3 to 50 µM; `c1ccc(-c2ccnc3cc(-c4ccc(N5CCOCC5)cc4)oc23)cc1` [Compound C50]: 0.3 to 3 µM. In the case of `Cn1cc(-c2ccnc3cc(-c4ccc([S+](C)[O-])cc4)oc23)cn1` (stereo not drawn) [Compound C54] it was 0.3 to 3 µM; in that of `COc1cc(-c2cc3nccc(-c4ccc5[nH]c(=O)[nH]c5c4)c3o2)cc(OC)c1OC` [Compound C56], below 0.3 µM; in that of `COc1cc(-c2cc3nccc(-c4cnc(N)cc4C)c3o2)cc(OC)c1OC` [Compound C75], 0.3 to 3 µM. In the case of `COc1cc(-c2cc3nccc(-c4csc(N(C)C)n4)c3o2)cc(OC)c1OC` [Compound C79] it was 0.3 to 3 µM; in that of `COc1cc(-c2cc3nccc(-c4ccccc4O)c3o2)cc(OC)c1OC` [Compound C85], below 0.3 µM.

(Values after patent publication US9006440B2, “Furopyridine derivatives” (Merck Patent GmbH, priority 2010, dated 2015).)
